Data reported in patent US20140314881A1 (priority 2009, published 2014).
Read-outs that look alike come from different tables or passages of the source.

Columns and labels:
red blood cell SNO-Hb = assay: Circulating SNO-Hb following brain death in swine ventilated with ENO (Example 1); type: in vivo; conditions: 12 hours after brain death
Experimental: The level of circulating SNO-Hb following brain death in three groups of swine was measured. […] FIG. 1 is a bar graph illustrating the results of administering ENO to an organ after brain death.

[1] = Creatinine and AST levels following brain death in swine with or without ENO (Example 2); type: in vivo
Experimental: The levels of creatinine and aspartate aminotransferase (AST) were monitored in two groups of swine following brain death. The level of creatinine is indicative of kidney function. The level of AST is indicative of liver function. For each groups a base line blood sample was taken, brain death was induced, and the second sample was taken after 12 h with or without 50 ppm ENO mixed into the ventilation circuit. […] AST increased in both groups but the magnitude of the increase with ENO was half that observed in the control group (35 to 79 U/l v. 30 to 145 U/l).

[2] = Physiological response of sheep to simulated altitude with or without ENO (Example 12); type: in vivo; conditions: simulated altitude −4,500 meters, inhalation of 50 ppm ENO
[3] = ENO administration to organ donors before or during organ procurement (Examples 8-11); type: in vivo, human
Experimental: A living kidney donor is administered ENO via inhalation during an open nephrectomy or as part of the insufflation gas during a laparoscopic donor nephrectomy. ENO is provided in pressurized cylinders for delivery through the ventilation or insufflation devices. The amount of ENO delivered can be titrated based on blood gas or organ blood flow changes.
A catheter is placed in a large vein of a brain dead patient. The catheter contains a cylindrical bundle of microporous hollow fiber membranes woven into a mat at the end. The catheter is placed within the central venous blood stream in the primary vein that returns blood to the heart. […] A respiratory system is activated and oxygen with 50 ppm ENO flows from a console outside the patient, through the catheter and through the hollow fibers. The fiber membranes are permeable to gases. As a result, oxygen and ENO diffuses into the blood stream from the fibers, while carbon dioxide (CO2) diffuses out of the blood stream into the fibers. Excess O2 and CO2 are removed back through the catheter to the external console.
Patient on respiratory is pronounced dead. Creatine phosphokinase (CPK) leak is indicative of cardiac injury. Patient is started on ENO 20 ppm and further CPK leak is prevented.
Patient dies. […] Kidney function is preserved over durations usually associated with decline in function.

[4] = Brain dead cat ventilated with ENO before kidney donation (Example 20); type: in vivo; conditions: Example 20: brain dead cat ventilated with oxygen and 50 ppm ENO, 24 hours
Excerpt: A pet owner presents at a state veterinary college with her cat that was recently struck by car. […] The owner is informed that her cat is brain dead and then provided details about a feline kidney donation program—the owner agrees to have her pet's kidneys transplanted. The animal is intubated and ventilated with oxygen augmented with 50 ppm ENO to preserve organ physiologic status while potential recipients are identified. Two clients of the vet school who own cats with end-stage renal disease are contacted and are grateful for the opportunity to have their pets receive a healthy kidney.

[5] = set-up: species or system human; conditions: in vivo
[6] = Example 11: deceased patient, ENO 20 ppm

Structure (SMILES): CCON=O [ENO, ethyl nitrite]
- change from baseline in red blood cell SNO-Hb concentration (red blood cell SNO-Hb; swine ventilated with 20 ppm ENO): an increase in SNO-Hb
- change from baseline in red blood cell SNO-Hb concentration (red blood cell SNO-Hb; swine ventilated with 50 ppm ENO): an increase in SNO-Hb
- AST level, second sample after 12 h ([1]; 50 ppm ENO in ventilation circuit, 12 h after brain death): 79 U/l
- creatinine level (kidney function) ([1]; 50 ppm ENO in ventilation circuit, 12 h after brain death vs base line): unchanged
- magnitude of the AST increase relative to control group ([1]; 50 ppm ENO, 12 h after brain death): half
- AST level, base line sample ([1]; ENO group, base line before brain death): 35 U/l
- cardiac output, hypoxia/high-altitude-induced increase [2]: reducing
- pulmonary arterial pressure (PAP), hypoxia/high-altitude-induced increase [2]: reducing
- pulmonary vascular resistance (PVR), hypoxia/high-altitude-induced increase [2]: reducing
- systemic vascular resistance (SVR) [2]: restoring SVR
- kidney transplantation outcome ([3]; Example 8: living kidney donor, ENO via inhalation or insufflation gas during nephrectomy): successfully transplanted
- liver transplantation outcome ([3]; Example 9: brain dead patient, oxygen with 50 ppm ENO via intravascular catheter): successfully transplanted
- heart transplantation outcome ([3]; Example 10: ENO 20 ppm, heart harvested 24 hours later): successfully transplanted
- creatine phosphokinase (CPK) leak (cardiac injury) ([3]; Example 10: patient pronounced dead, ENO 20 ppm): prevented
- graft rejection [3, 6]: neither early nor late rejection is observed
- kidney transplantation outcome [3, 6]: successfully transplanted
- renal function [3, 6]: does not decline
- organ function of donor [4]: maintained organ function
- breathing disorder at altitude [5]: not exacerbated
- dyspnea during commercial flight [5]: breathing normally
- occurrence of Acute Mountain Sickness [5]: No individuals experiences Acute Mountain Sickness
- signs of altitude sickness at altitude (prevention) [5]: no sign of altitude sickness
- symptoms of altitude mountain sickness [5]: abate
- symptoms of high altitude cerebral edema ([5]; iv): abate
- symptoms of high altitude pulmonary edema ([5]; iv): abate
- symptoms of altitude mountain sickness ([5]; po): abate
